This passage reports IC50 results from patent publication US12030875B2, “EIF4E inhibitors and uses thereof” (PIC Therapeutics, Inc., priority 2018, dated 2024).

The structures appear in SMILES notation.

For the experiment, the target named is T1, Human eIF4E (Homo sapiens, UniProt P06730).
T1 construct: Human eIF4E (aa 28-217) with a C-terminal His-tag; made in house
T1 sequence (P06730 28-217): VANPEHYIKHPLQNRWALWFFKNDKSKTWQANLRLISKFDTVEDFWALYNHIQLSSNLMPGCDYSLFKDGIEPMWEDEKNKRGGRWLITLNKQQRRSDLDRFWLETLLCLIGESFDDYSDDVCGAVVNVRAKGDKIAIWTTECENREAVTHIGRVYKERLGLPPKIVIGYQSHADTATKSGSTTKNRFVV
As to the kind of experiment: Human eIF4E/4G2 binding assay (TR-FRET). To be noted: eIF4E (aa 28-217) with biotin labeled 4G2 peptide. In a few lines:
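His-tagged human eIF4E (aa 28-217), refolded from E. coli inclusion bodies, at 82.5 nM working stock; compounds in 10-point 2-fold DMSO series, preincubated 15 min at RT in 50 mM NaPi pH 6.5, 50 mM KCl, 1 mM DTT. Biotin-4G2 peptide added, 15 min, then Eu-streptavidin/APC-anti-His, 20 min; normalized 665/615 nm TR-FRET signal; IC50 by curve fit.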
In turn, `O=C(O)CCc1nc(-c2ccc(-c3ccc(F)cc3)cc2)c(-c2ccccc2)s1` [Compound I-234, 3-(4-(4′-fluorobiphenyl-4-yl)-5-phenylthiazol-2-yl)propanoic acid] registered an IC50 of less than 5 µM.
Under `O=C(O)CCc1nc(-c2ccc(-c3ccc(F)cc3)cc2)c(C(F)(F)F)s1` [Compound I-235, 3-(4-(4′-fluorobiphenyl-4-yl)-5-(trifluoromethyl)-thiazol-2-yl)-propanoic acid] stands 5 to 25 µM; under `Cc1sc(N2CCOC(C(=O)O)C2)nc1-c1ccc(-c2ccc(F)cc2)cc1` (stereo not shown) [Compound I-236, 4-(4-(4′-fluorobiphenyl-4-yl)-5-methylthiazol-2-yl) morpholine-2-carboxylic acid], 5 to 25 µM; under `Cc1nc(N2CCOC(C(=O)O)C2)sc1-c1ccc(-c2ccc(F)cc2)cc1` (stereo not shown) [Compound I-237, 4-(5-(4′-fluorobiphenyl-4-yl)-4-methylthiazol-2-yl) morpholine-2-carboxylic acid], 5 to 25 µM.
The compound `Cc1nc(N2CCCC(C(=O)O)C2)sc1-c1ccc(-c2ccc(F)cc2)cc1` (stereo not shown) [Compound I-238] yielded an IC50 of 5 to 25 µM.
`O=C(O)C1CN(c2nc(-c3ccc(-c4ccc(F)cc4)cc3)c(C(F)(F)F)s2)CCO1` (stereo not shown) [Compound I-239]: the IC50 lay in the range of 5 to 25 µM.
Under `O=C(O)C1CN(c2nc(-c3ccccc3)c(-c3ccc(-c4ccc(F)cc4)cc3)s2)CCO1` (stereo not shown) [Compound I-240, 4-(5-(4′-fluorobiphenyl-4-yl)-4-phenylthiazol-2-yl) morpholine-2-carboxylic acid] stands less than 5 µM.
